From patent US20160355530A1, “HEPATITIS C INHIBITORS AND USES THEREOF” (AbbVie Inc., priority 2010, published 2016) come the findings set out here.

Usually IC50 stands for the point on the concentration scale where inhibition reaches its midpoint. What is called EC50 is the concentration needed to bring the measured effect to its halfway point.

Test [1] concerns the target T1, HCV NS5B polymerase 1a-H77 (Hepatitis C virus genotype 1a, UniProt P27958).
T1 construct: six-histidine tag; made in house; host or cells: E. coli
Briefly: biochemical. Set-up: species or system HCV genotype 1a. Conditions: enzyme, strain 1a H77; read-out: HCV Polymerase Strain 1a H77 IC50. In outline:
(§1)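 Incorporation of [3H]UTP (0.284 μM), alongside 20 μM each CTP and ATP, into RNA copied from a 5 nM 2.1 kb genotype 1b negative-strand template was measured after 3 h at 30° C using purified His-tagged NS5B truncated at residue 570. Product was spermine-precipitated, filtered and scintillation-counted; nonlinear regression gave IC50.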

The target of test [2] is T2, HCV NS5B polymerase 1a-H77-C316Y (Hepatitis C virus genotype 1a, UniProt P27958, C2736Y).
T2 construct: six-histidine tag; made in house; host or cells: E. coli
Briefly: biochemical. On the set-up: species or system HCV genotype 1a. In outline: as §1

Test [3] has as its system HCV NS5B polymerase 1a-H77-C316Y. The test is described as follows: biochemical. On the set-up: species or system HCV genotype 1a. Conditions: ratio of enzyme IC50s, 1a H77-C316Y / 1a H77. In outline:
as §1

The target of test [4] is T3, HCV NS5B polymerase 1b BK strain (Hepatitis C virus genotype 1b, UniProt P26663).
T3 construct: six-histidine tag; made in house; host or cells: E. coli
Briefly: HCV NS5B polymerase enzymatic inhibition assay, strain 1b BK. To be noted: enzyme, strain 1b BK; read-out: HCV Polymerase Strain 1b BK IC50. Format: biochemical. The procedure, abridged:
as §1

Test [5] relates to HCV 1a-H77 subgenomic replicon. The test is described as follows: microbe, parasite or virus in culture. Format: cell-based, HCV genotype 1a. Conditions: Hepatitis C virus, stable replicon. In general terms: Replicon systems follow genome replication, usually without infectious particles.
The subject of test [6] is HCV 1b-BB7 subgenomic replicon. Briefly: microbe, parasite or virus in culture. To be noted: Hepatitis C virus, stable replicon. Format: cell-based, HCV genotype 1b.
In test [7] the test system is chimeric replicon with 2a-J6CF-derived NS5B. The test is described as follows: microbe, parasite or virus in culture. Format: cell-based, HCV genotype 2a. Conditions: Hepatitis C virus, read-out: 2a chimera 5% FBS EC50.
Test [8] has as its system chimeric replicon with genotype 2b NS5B. The test is described as follows: microbe, parasite or virus in culture. Format: cell-based, HCV genotype 2b. Conditions: Hepatitis C virus, read-out: 2b chimera 5% FBS EC50.
Test [9] relates to chimeric replicon with genotype 3a NS5B. The test is described as follows: microbe, parasite or virus in culture. Format: cell-based, HCV genotype 3a. Conditions: Hepatitis C virus, read-out: 3a chimera 5% FBS EC50.
Test [10] has as its system chimeric replicon with genotype 4a NS5B. Briefly: microbe, parasite or virus in culture. Format: cell-based, HCV genotype 4a. Conditions: Hepatitis C virus, read-out: 4a chimera 5% FBS EC50.
The test system of test [11] is HCV 1a-H77 transient subgenomic replicon in Huh-7 derived cell line. Briefly: microbe, parasite or virus in culture. Format: cell-based, HCV genotype 1a. To be noted: Hepatitis C virus, Huh-7; transient replicon, 5% FBS; read-out: Transient Replicon 1a H77 5% FBS EC50. As for the experimental part: (§2) In addition to the stable replicon inhibition assays, transient replicon assays were performed. Transient replicons are identical to the 1a-H77 and 1a-H77-C316Y constructs, except they lack the Neo gene, making it impossible to establish stable cell lines. A T7 Megascript RNA synthesis kit (Ambion) was used to transcribe the HCV subgenomic RNA. The HCV RNA was then precipitated with lithium chloride according to manufacturer's instructions. The HCV subgenomic replicon RNA was transfected via electroporation into a Huh-7 derived cell line as described (Middleton T, et al. J. Virological Methods 2007; 145(2): 137-145). Transfected cells were diluted and plated in 96 well plates at 5×10^3 cells per well in DMEM. Four hours post-transfection, the wells from one plate were harvested for luciferase measurement. This plate provides a measure of the amount of translatable input RNA, and therefore transfection efficiency. To the wells of the remaining plates, a 3-fold dilution series of test compounds was added in DMSO (0.5% DMSO final concentration), and plates were incubated at 37° C., 5% CO2 in a humidified incubator for 4 days. After this period, the media was removed and the plates were washed with 100 μL phosphate-buffered saline per well. For the luciferase assay, 30 μL of Passive Lysis buffer (Promega) was added to each well, and then the plates were incubated for 15 minutes with rocking to lyse the cells. Luciferin solution (100 μL, Promega) was added to each well, and luciferase activity was measured with a Victor II luminometer (Perkin-Elmer). The EC50 values were calculated using GraphPad Prism 4 software.

In test [12] the test system is HCV 1a-H77-C316Y transient subgenomic replicon in Huh-7 derived cell line. Briefly: microbe, parasite or virus in culture. Format: cell-based, HCV genotype 1a. Conditions: for EC50: Hepatitis C virus, Huh-7, read-out: Transient Replicon 1a H77-C316Y 5% FBS EC50; for Transient Replicon Fold Resistance C316Y/1a: ratio of transient replicon EC50s, C316Y / 1a H77. As for the experimental part:
as §2

The mark [13] stands for this setting: 5% FBS, absence of human plasma, read-out: Stable Replicon 1a H77 5% FBS EC50.
The mark [14] stands for this setting: strain 1a H77, 5% FBS + 40% human plasma, read-out: 1a H77 5% FBS + 40% Human Plasma EC50.
[15] abbreviates: strain 1a H77, 5% FBS, no human plasma, read-out: 1a H77 5% FBS EC50.
[16] abbreviates: strain 1a H77, 5% FBS, read-out: 1a H77 5% FBS EC50.
The mark [17] stands for this setting: strain 1b BB7, 5% FBS + 40% human plasma, read-out: 1b BB7 5% FBS + 40% Human Plasma EC50.
[18] abbreviates: strain 1b BB7, 5% FBS, no human plasma, read-out: 1b BB7 5% FBS EC50.
The mark [19] stands for this setting: strain 1b BB7, 5% FBS, read-out: 1b BB7 5% FBS EC50.

Each structure is given as a SMILES string. Where two headings read alike, the source gives them in different places.

T2 sequence (P27958 2421-2990 C2736Y): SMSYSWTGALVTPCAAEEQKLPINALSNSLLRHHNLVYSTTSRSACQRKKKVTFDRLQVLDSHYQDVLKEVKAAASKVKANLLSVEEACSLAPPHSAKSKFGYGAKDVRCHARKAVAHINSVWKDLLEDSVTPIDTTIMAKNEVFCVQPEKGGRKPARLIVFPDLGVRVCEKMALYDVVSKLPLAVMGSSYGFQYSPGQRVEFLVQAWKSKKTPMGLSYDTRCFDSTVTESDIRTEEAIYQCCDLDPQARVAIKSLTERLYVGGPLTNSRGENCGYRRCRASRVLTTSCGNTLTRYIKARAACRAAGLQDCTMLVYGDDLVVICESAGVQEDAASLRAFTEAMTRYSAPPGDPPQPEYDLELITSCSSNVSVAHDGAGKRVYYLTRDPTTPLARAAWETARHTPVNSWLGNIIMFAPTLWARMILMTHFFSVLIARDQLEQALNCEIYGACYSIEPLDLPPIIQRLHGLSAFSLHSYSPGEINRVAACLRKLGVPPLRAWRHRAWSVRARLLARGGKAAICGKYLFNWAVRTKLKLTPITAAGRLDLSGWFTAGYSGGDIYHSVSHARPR
T1 sequence (P27958 2421-2990): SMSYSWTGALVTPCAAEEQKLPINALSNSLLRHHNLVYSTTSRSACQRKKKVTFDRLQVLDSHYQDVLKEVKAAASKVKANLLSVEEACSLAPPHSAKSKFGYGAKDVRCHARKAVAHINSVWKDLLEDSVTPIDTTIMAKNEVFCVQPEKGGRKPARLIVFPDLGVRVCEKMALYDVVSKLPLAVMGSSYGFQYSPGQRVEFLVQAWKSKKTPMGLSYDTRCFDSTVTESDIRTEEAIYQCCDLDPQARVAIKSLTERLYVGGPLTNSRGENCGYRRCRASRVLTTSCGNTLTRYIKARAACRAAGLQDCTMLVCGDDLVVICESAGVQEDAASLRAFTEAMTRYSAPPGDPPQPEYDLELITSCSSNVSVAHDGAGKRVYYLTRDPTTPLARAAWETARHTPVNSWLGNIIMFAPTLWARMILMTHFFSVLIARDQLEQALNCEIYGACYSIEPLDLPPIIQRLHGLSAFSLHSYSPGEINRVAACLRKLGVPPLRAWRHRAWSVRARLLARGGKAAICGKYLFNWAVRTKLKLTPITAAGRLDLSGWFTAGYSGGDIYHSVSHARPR
T3 sequence (P26663 2420-2989): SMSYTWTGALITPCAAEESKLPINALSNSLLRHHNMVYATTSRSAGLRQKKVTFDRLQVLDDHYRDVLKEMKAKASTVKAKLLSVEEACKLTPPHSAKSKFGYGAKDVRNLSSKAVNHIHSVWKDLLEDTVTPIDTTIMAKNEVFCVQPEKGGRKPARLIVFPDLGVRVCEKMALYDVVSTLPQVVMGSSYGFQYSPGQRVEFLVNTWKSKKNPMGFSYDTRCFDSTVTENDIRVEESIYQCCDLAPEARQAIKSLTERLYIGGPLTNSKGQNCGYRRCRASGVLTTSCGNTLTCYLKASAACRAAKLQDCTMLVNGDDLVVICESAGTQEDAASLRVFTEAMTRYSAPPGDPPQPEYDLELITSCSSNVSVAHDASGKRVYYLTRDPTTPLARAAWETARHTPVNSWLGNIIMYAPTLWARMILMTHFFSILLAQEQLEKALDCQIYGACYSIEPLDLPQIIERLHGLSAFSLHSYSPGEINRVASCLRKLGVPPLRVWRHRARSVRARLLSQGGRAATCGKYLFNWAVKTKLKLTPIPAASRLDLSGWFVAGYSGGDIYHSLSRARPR

Take `CC(C)CCN(c1cc2oc(-c3ccc(F)cc3)c(-c3ncc[nH]3)c2cc1C1CC1)S(C)(=O)=O` [Example 4, N-[5-cyclopropyl-2-(4-fluorophenyl)-3-(1H-imidazol-2-yl)-1-benzofuran-6-yl]-N-(3-methylbutyl)methanesulfonamide]: the IC50 in test [1] is 5.3 nM; in test [2], 57 nM; in [4], 11 nM. Moreover, in [3], the “C316Y/1a Fold Resistance” value came out at 11 fold. The EC50 was 29 nM in test [5] (setting [13]); 512 nM in [5] (setting [14]); 29 nM in [5] (setting [15]); 29 nM in test [5] (setting [16]); 297 nM in test [6] (setting [17]); 25 nM in test [6] (setting [18]). Moreover, the EC50 is 25 nM in test [6] (setting [19]); 156 nM in test [7]; 270 nM in [8]; 11 nM in test [9]; 169 nM in test [10]; 7.9 nM in test [11]. Moreover, the EC50 in [12] was 69.4 nM. Further, in test [12], the “Transient Replicon Fold Resistance C316Y/1a” value was 9 fold.

For the compound `CS(=O)(=O)N(CCCCO)c1cc2oc(-c3ccc(F)cc3)c(C3=NOCCN3)c2cc1C1CC1` [Example 8, N-[5-cyclopropyl-3-(5,6-dihydro-4H-1,2,4-oxadiazin-3-yl)-2-(4-fluorophenyl)-1-benzofuran-6-yl]-N-(4-hydroxybutyl)methanesulfonamide], the results for the IC50 in test [1], in test [2] and in test [4] were 4.9 nM, 31 nM and 27 nM, respectively. Besides, the “C316Y/1a Fold Resistance” value in test [3] amounted to 6 fold. For the same compound, the 50% effective concentration (EC50) in test [5] (setting [13]) worked out at 6.3 nM; in test [5] (setting [14]), 36 nM; in test [5] (setting [15]), 6.3 nM; in [5] (setting [16]), 6.3 nM; in test [6] (setting [17]), 64 nM; in test [6] (setting [18]), 10 nM. The EC50 in [6] (setting [19]) is 10 nM; in test [7], 117 nM; in [8], 101 nM; in [9], 19.9 nM; in test [10], 71.6 nM; in test [11], 3.1 nM. Besides, in test [12], the EC50 stood at 31.4 nM. Also, the “Transient Replicon Fold Resistance C316Y/1a” value in [12] is reported as 10 fold.

As for `CS(=O)(=O)N(CCC1CCS(=O)(=O)C1)c1cc2oc(-c3ccc(F)cc3)c(C3=NOCCN3)c2cc1C1CC1` (stereo not shown) [Example 123], the values for the IC50 in test [1], in test [2] and in test [4] were 9.5 nM, 76 nM and 14 nM, respectively. In test [3], the “C316Y/1a Fold Resistance” value stood at 8 fold. The EC50 in test [5] (setting [13]) was 10.9 nM; in test [5] (setting [14]) it was 108 nM; in test [5] (setting [15]), 10.9 nM; in [5] (setting [16]), 10.9 nM; in test [6] (setting [17]), 211 nM; in test [6] (setting [18]), 18 nM. Further, the EC50 is 18 nM in test [6] (setting [19]); 162 nM in test [7]; 105 nM in test [8]; 36.4 nM in test [9]; 58.1 nM in test [10]; 10.7 nM in test [11]. Further, the EC50 in test [12] worked out at 78.9 nM. In [12], the “Transient Replicon Fold Resistance C316Y/1a” value worked out at 7 fold.

As to `Cc1cnc(-c2c(-c3ccc(F)cc3)oc3cc(N(CCC(C)C)S(C)(=O)=O)c(C4CC4)cc23)[nH]1` [Example 172, N-[5-cyclopropyl-2-(4-fluorophenyl)-3-(5-methyl-1H-imidazol-2-yl)-1-benzofuran-6-yl]-N-(3-methylbutyl)methanesulfonamide], the IC50 in test [1] was determined as 13.3 nM; in test [2], 87 nM; in [4] it was 179 nM. Moreover, in test [3], the “C316Y/1a Fold Resistance” value turned out to be 7 fold. In addition, the EC50 in test [5] (setting [13]) came out at 67.4 nM; in test [5] (setting [14]) it was 1220 nM; in test [5] (setting [15]), 67.4 nM; in [5] (setting [16]), 67.4 nM; in [6] (setting [17]), 1130 nM; in test [6] (setting [18]), 111 nM. Besides, the EC50 in test [6] (setting [19]) is 111 nM; in test [7], 1000 nM; in test [8] it was 1000 nM; in test [9] it was 233 nM; in [10] it was over 1000 nM; in [11] it was 40.4 nM. For the same compound, the EC50 in test [12] is 103 nM. Besides, in test [12], the “Transient Replicon Fold Resistance C316Y/1a” value came to 3 fold.

On to `CS(=O)(=O)N(Cc1cnc(-c2ccc3[nH]ccc3c2)s1)c1cc2oc(-c3ccc(F)cc3)c(-c3ncc[nH]3)c2cc1C1CC1` [Example 31, N-[5-cyclopropyl-2-(4-fluorophenyl)-3-(1H-imidazol-2-yl)-1-benzofuran-6-yl]-N-{[2-(1H-indol-5-yl)-1,3-thiazol-5-yl]methyl}methanesulfonamide], for which the IC50 in test [1] came out at 3.5 nM; in [2], 172 nM; in test [4], 7 nM. In test [3], the “C316Y/1a Fold Resistance” value is 50 fold. For the same compound, the EC50 in test [5] (setting [13]) stood at 41.6 nM; in test [5] (setting [14]), 382 nM; in test [5] (setting [15]) it was 41.6 nM; in test [5] (setting [16]) it was 41.6 nM; in test [6] (setting [17]), 201 nM; in test [6] (setting [18]), 28.4 nM. In addition, the EC50 in [6] (setting [19]) is 28.4 nM; in test [7], 185 nM; in test [8], 151 nM; in test [10], 84 nM; in [11], 30.9 nM; in [12], 828 nM. The “Transient Replicon Fold Resistance C316Y/1a” value in [12] worked out at 27 fold.

`CC(C)CCN(c1cc2oc(-c3ccc(F)cc3)c(C3=NOCCN3)c2cc1C1CC1)S(C)(=O)=O` [Example 10, N-[5-cyclopropyl-3-(5,6-dihydro-4H-1,2,4-oxadiazin-3-yl)-2-(4-fluorophenyl)-1-benzofuran-6-yl]-N-(3-methylbutyl)methanesulfonamide]: the IC50 amounted to 7 nM in test [1], 64 nM in test [2] and 105 nM in test [4]. The EC50 in test [5] (setting [13]) is 10.5 nM; in test [5] (setting [14]), 134 nM; in test [5] (setting [15]), 10.5 nM; in test [5] (setting [16]), 10.5 nM; in [6] (setting [17]) it was 171 nM; in [6] (setting [18]), 16.2 nM. Further, the EC50 came out at 16.2 nM in [6] (setting [19]); 181 nM in test [7]; 303 nM in [8]; 16 nM in test [9]; 192 nM in test [10]; 6 nM in test [11]. The EC50 in test [12] came to 33.5 nM. Also, the “Transient Replicon Fold Resistance C316Y/1a” value in test [12] was 6 fold.
